Measurements: a compilation of properties of binary mixtures (doi:10.1016/j.jct.2009.06.023)

Assay: xn = mol fraction of the nth substance listed
Details: 101 kPa

CCCC[n+]1ccn(C)c1.O=[N+]([O-])[O-] + CCCCO
viscosity [mPa·s]
Details | x2 = 0.129 | x2 = 0.26 | x2 = 0.361 | x2 = 0.456 | x2 = 0.565 | x2 = 0.65 | x2 = 0.753 | x2 = 0.848
283.15 K | 232 | 125 | 75.5 | – | 29 | 19.86 | 11.42 | 7.82
288.15 K | 170.6 | – | 58.8 | 38.34 | – | 16.11 | 9.74 | 6.78
293.15 K | 126.9 | 68.4 | 46.54 | 31.1 | – | 13.67 | 8.41 | –
298.15 K | – | 53.94 | 37.64 | – | – | 11.74 | 7.28 | 5.12
303.15 K | 70.8 | – | 30.76 | 21.48 | – | 10.17 | 6.35 | 4.52
308.15 K | – | – | 25.6 | 18.23 | 12.37 | – | – | 3.98
313.15 K | 45.28 | 29.24 | – | 15.59 | – | – | – | 3.56
318.15 K | 37.11 | – | 18.41 | 13.52 | – | 6.94 | 4.38 | 3.19
323.15 K | 30.72 | 20.83 | – | 11.81 | 8.33 | 6.15 | – | 2.87
328.15 K | 25.86 | 17.89 | 13.75 | 10.37 | 7.37 | 5.52 | 3.5 | 2.6
333.15 K | 21.95 | 15.46 | – | 9.18 | – | 4.93 | 3.17 | 2.37

CCCC[n+]1ccn(C)c1.O=[N+]([O-])[O-] + CCCO
viscosity [mPa·s]
Details | x2 = 0.121 | x2 = 0.257 | x2 = 0.364 | x2 = 0.471 | x2 = 0.554 | x2 = 0.673 | x2 = 0.755 | x2 = 0.857
283.15 K | 243 | 125.8 | 72.5 | 42.71 | 27.88 | 15.61 | 10.26 | 6.16
288.15 K | – | 95.7 | 56.76 | – | 23 | 13.2 | 8.83 | 5.29
293.15 K | 130.9 | 68.2 | 45.1 | 28.35 | 19.19 | – | 7.6 | 4.64
298.15 K | 99.8 | 53.67 | 36.43 | 23.48 | 16.29 | – | 6.56 | 4.05
303.15 K | 74 | 43.04 | 29.92 | 19.71 | 13.94 | 8.54 | 5.77 | 3.59
308.15 K | 58.48 | 35.02 | 24.93 | – | 12.03 | 7.43 | 5.04 | 3.21
313.15 K | 47.07 | 28.93 | – | 14.44 | 10.5 | 6.49 | 4.49 | 2.87
318.15 K | 38.59 | 24.21 | 17.89 | – | – | 5.78 | 3.97 | 2.59
323.15 K | – | 20.58 | 15.41 | – | 8.16 | 5.09 | 3.58 | 2.35
328.15 K | 26.75 | 17.65 | 13.41 | – | 7.2 | 4.58 | – | –
333.15 K | 22.73 | 15.31 | 11.77 | 8.61 | – | 4.14 | 2.94 | 1.96
